Results taken from paper PMC12340957, “Interactions between Lipopolysaccharide and Peptide Bacteriocin BacSp222 Influence Their Biological Activities” (ACS Infectious Diseases, 2025).
Ends that are not written are not given here. * marks the point of attachment. For = O=C*

Tests used:
FPR2 = system: FPR2; parameters: method as in number not given; conditions: ref number not given; cited from earlier work
TLR4 receptor = target: T1, TLR4 receptor (Homo sapiens, UniProt O00206+Q9Y6Y9); assay: HEK-Blue hTLR4 stimulation, SEAP reporter; assay type: cell-based; conditions: HEK-Blue hTLR4, BacSp222 0.016 to 2 μM without LPS, 17 h
T1 construct: host or cells: HEK-Blue hTLR4 (HEK293 reporter cells)
Method: The eukaryotic cells were cultured according to the methods described in previous publications. , The murine monocyte/macrophage RAW 264.7 cell line (ATCC TIB-71) and the murine monocyte/macrophage P388.D1 cell line (ATCC CCL-46) were purchased from the American Type Culture Collection (ATCC, Manassas, VA, USA). Human TLR4/NF-κB/SEAP (HEK-Blue hTLR4) and human TLR2 + TLR6/NF-κB/SEAP (HEK-Blue hTLR2/TLR6) reporter HEK293 cells were obtained from InvivoGen (San Diego, CA, USA). The passages of all TLR reporter HEK293 cells ranged from 7 to 15. All cells used in experiments were cultured under the following conditions: 5% CO2, 37 °C, and >95% humidity. RAW 264.7 and P388.D1 cells were cultured in Dulbecco’s modified Eagle’s medium (DMEM) containing 4.5 g/L glucose (GIBCO, Paisley, UK) and 5% (v/v) fetal bovine serum (FBS, GIBCO, Paisley, UK), whereas HEK-Blue hTLR4 and HEK-Blue hTLR2/TLR6 were cultured in DMEM containing 4.5 g/L glucose, 10% (v/v) FBS, 50 units/mL penicillin, and 50 μg/mL streptomycin (both from GIBCO, Paisley, UK). […]
Measurement of the activity of SEAP, secreted by the HEK-Blue cells to the media, was conducted as described previously. […] Then, the plate was incubated at 37 °C for 1 h in the dark, and the absorbance was measured at 620 nm using a Synergy H1 Hybrid microplate reader controlled by Gene5 version 2.00.18 software (BIOTEK Instruments, Winooski, VT, USA). […]

[1] = system: ATCC 25923, ATCC 29663, ATCC 6633, and ATCC 4698; assay: Residual bactericidal activity, radial diffusion assay; assay type: cell-based; conditions: 10 or 50 μM BacSp222, 16 h, n = 3
Method: The residual bactericidal activity of BacSp222 after preincubation with different LPS serotypes and at different mass proportions was determined using radial diffusion assay toward the following bacteria: ATCC 25923, ATCC 29663, ATCC 6633, and ATCC 4698. BacSp222 at final concentrations of 10 μM (for and ) or 50 μM (for and ) was preincubated in PBS without Ca^2+ and Mg^2+ for 15 min at 37 °C with LPS O55:B5 (IEC) or O111:B4 (PE and IEC) at proportions equivalent to 1:1 or 1:17 mass ratios (BacSp222:LPS). After preincubation, 5 μL aliquots of the solutions were dispensed as drops at different sites of soft Mueller–Hinton Broth II (MHBII, Merck, Darmstadt, Germany) plates containing 0.75% (w/v) agarose and a suspension of the tested bacteria strains. After liquid preparations were entered into the solid medium, the plates were incubated at 37 °C for 16 h, and the antibacterial activity of the studied samples was determined as the diameter of the bacterial growth inhibition zone. In each experiment, the appropriate controls were applied on the plate, and they comprised adequate amounts of BacSp222 and LPS not incubated together.

T1 sequence (O00206 24-839): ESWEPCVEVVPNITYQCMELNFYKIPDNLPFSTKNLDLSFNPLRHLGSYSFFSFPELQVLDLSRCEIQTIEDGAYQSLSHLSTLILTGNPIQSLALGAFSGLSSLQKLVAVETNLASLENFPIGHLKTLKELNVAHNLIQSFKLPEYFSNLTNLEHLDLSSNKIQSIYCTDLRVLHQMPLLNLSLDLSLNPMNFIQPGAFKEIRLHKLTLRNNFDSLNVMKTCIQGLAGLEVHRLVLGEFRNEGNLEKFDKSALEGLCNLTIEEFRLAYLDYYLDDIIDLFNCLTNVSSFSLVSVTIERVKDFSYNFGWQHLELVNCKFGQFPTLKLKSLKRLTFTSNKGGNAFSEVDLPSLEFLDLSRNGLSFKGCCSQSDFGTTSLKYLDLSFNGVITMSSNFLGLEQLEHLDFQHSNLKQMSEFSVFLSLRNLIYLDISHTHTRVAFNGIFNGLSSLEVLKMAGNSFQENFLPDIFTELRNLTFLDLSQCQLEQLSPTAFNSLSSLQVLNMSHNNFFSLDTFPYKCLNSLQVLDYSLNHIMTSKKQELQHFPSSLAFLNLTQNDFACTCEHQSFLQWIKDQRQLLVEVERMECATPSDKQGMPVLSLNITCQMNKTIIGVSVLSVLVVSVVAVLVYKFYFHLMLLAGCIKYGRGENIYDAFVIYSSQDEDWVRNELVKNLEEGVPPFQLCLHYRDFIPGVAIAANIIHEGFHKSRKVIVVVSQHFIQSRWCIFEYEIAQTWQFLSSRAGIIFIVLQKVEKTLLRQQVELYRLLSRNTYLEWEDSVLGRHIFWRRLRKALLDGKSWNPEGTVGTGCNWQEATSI
T1 sequence (Q9Y6Y9 17-160 limits assumed): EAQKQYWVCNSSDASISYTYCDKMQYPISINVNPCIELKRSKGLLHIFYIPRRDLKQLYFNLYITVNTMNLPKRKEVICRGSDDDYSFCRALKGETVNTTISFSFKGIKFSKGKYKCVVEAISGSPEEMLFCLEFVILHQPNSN

Substance: For-MAGLLRFLLSKGRALYNWAKSHVGKVWEWLKSGATYEQIKEWIENALGWR [BacSp222]
- activation of FPR2 (FPR2): cannot activate
- stimulation of TLR4 by BacSp222 alone (TLR4 receptor): none of the tested BacSp222 concentrations stimulated the TLR4 receptors
- effect of LPS on bactericidal potential of BacSp222 ([1]; 17-fold mass excess of LPS (1:17), all strains but one exception): completely inhibited the killing potential of BacSp222
- effect of LPS on bactericidal potential of BacSp222 ([1]; BacSp222:LPS 1:1 mass ratio, all LPS preparations, all four strains, preincubated 15 min 37 °C, peptide referred to as "bacteriocin"/"the peptide"): only marginally reduces the bactericidal potential of the peptide
